Activity calls are given as the source filed them. The calls are words filed in the database; no cut-off is given here.
Assays:
[1] = Drug uptake in Sprague-Dawley rat brain at 1 mg/kg, iv measured after 1 to 24 hrs by LC-MS analysis; assay type: ADME, organism-based; settings: in vivo, time 1-24 hrs
LSD1/CoREST complex = LSD1/CoREST complex (Homo sapiens, UniProt O60341); experiment: Inhibition of human recombinant LSD1/CoREST using ART(mK)QTARKSTGGKAPRKQLAGGK-biotin as substrate incubated for 15 mins; assay type: protein-complex assay
[2] = target: P-glycoprotein (ABCB1, MDR1) (Homo sapiens, UniProt P08183); experiment: Substrate activity at p-glycoprotein (unknown origin) expressed in pig LLC-PK1 cells coexpressing MDR1 assessed as efflux ratio at apparent permeability across basolateral to apical side to apparent permeability across apical to basolateral side at 1 uM measured after 1 hr by LC-MS/MS analysis; assay type: ADME, cell-based
[3] = Drug metabolism in Sprague-Dawley rat brain assessed as N-(6-fluoro-4-methylpyridin-3-yl)acetamide level in cortex at 10 mg/kg, iv measured after 1 hr by HPLC-UV and LC/MS analysis; assay type: ADME, organism-based; settings: in vivo
[4] = Drug metabolism in Sprague-Dawley rat brain assessed as N-(6-fluoro-4-methylpyridin-3-yl)acetamide level in cortex at 10 mg/kg, iv measured after 4 hrs by HPLC-UV and LC/MS analysis; assay type: ADME, organism-based; settings: in vivo
[5] = Drug metabolism in Sprague-Dawley rat brain assessed as fluorine-containing metabolite level in cortex at 10 mg/kg, iv measured after 1 to 4 hrs by HPLC-UV and LC/MS analysis; assay type: ADME, organism-based; settings: in vivo, time 1-4 hrs
[6] = Retention time of the compound by HPLC method; assay type: physicochemical
[7] = Drug metabolism in cryopreserved human hepatocytes assessed as hydrolysis-mediated 6-fluoro-4-methylnicotinic acid formation measured for 6 hrs by HPLC-UV and LC/MS analysis; assay type: ADME, cell-based, Hepatocyte
[8] = Drug metabolism in cryopreserved human hepatocytes assessed as N-acetylglucosamine conjugation-mediated metabolite formation measured for 6 hrs by HPLC-UV and LC/MS analysis; assay type: ADME, cell-based, Hepatocyte
[9] = Drug metabolism in cryopreserved rat hepatocytes assessed as hydrolysis-mediated 6-fluoro-4-methylnicotinic acid formation measured for 6 hrs by HPLC-UV and LC/MS analysis; assay type: ADME, cell-based, Hepatocyte
[10] = Drug metabolism in cryopreserved rat hepatocytes assessed as N-acetylglucosamine conjugation-mediated metabolite formation measured for 6 hrs by HPLC-UV and LC/MS analysis; assay type: ADME, cell-based, Hepatocyte
[11] = Drug metabolism in cryopreserved monkey hepatocytes assessed as N-acetylglucosamine conjugation-mediated metabolite formation measured for 6 hrs by HPLC-UV and LC/MS analysis; assay type: ADME, cell-based, Macaca mulatta, Hepatocyte; settings: rhesus monkey
[12] = Drug metabolism in cryopreserved monkey hepatocytes assessed as hydrolysis-mediated 6-fluoro-4-methylnicotinic acid formation measured for 6 hrs by HPLC-UV and LC/MS analysis; assay type: ADME, cell-based, Macaca mulatta, Hepatocyte; settings: rhesus monkey
[13] = target: Lysine-specific histone demethylase 1A (Homo sapiens) (UniProt O60341); experiment: Binding affinity to human recombinant LSD1 assessed as compound-FAD adduct formation at 1 mM incubated for 1 hr by LC-MS analysis
[14] = target: T1, Amine oxidase [flavin-containing] A (Homo sapiens, UniProt P21397); experiment: Inhibition of MAO-A (unknown origin) incubated for 10 mins followed by MAO substrate addition and measured after 60 mins by luciferin-based luminescence assay
T1 sequence (P21397 whole entry): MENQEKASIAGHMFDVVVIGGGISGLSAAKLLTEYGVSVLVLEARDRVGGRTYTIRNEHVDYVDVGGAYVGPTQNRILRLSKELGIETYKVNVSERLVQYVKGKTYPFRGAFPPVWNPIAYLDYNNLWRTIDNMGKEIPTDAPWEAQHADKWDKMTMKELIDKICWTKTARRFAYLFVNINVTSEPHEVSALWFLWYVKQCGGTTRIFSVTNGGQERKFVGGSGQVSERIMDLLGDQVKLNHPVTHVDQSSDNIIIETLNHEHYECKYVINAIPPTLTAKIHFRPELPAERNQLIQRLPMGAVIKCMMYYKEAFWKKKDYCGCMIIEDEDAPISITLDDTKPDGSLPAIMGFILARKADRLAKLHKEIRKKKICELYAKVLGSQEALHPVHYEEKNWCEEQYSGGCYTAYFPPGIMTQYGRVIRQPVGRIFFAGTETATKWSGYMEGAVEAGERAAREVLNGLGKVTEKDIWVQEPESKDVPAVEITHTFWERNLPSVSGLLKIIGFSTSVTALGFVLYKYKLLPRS

[15] = target: T2, Amine oxidase [flavin-containing] B (Homo sapiens, UniProt P27338); experiment: Inhibition of MAO-B (unknown origin) incubated for 10 mins followed by MAO substrate addition and measured after 60 mins by luciferin-based luminescence assay
T2 sequence (P27338 whole entry): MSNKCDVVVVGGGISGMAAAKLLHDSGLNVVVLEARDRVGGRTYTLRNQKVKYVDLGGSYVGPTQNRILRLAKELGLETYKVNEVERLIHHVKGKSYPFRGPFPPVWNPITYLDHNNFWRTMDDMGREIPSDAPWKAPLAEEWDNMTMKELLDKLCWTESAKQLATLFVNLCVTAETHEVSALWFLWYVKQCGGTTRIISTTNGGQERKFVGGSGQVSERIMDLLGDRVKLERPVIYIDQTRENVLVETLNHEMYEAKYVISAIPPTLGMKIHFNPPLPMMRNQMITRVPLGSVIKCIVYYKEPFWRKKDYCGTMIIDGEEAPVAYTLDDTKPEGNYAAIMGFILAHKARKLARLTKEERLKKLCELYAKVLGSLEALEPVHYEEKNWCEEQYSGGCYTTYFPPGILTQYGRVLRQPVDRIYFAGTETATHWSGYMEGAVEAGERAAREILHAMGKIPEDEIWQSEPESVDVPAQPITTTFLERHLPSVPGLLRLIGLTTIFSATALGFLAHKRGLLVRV

[16] = Drug concentration in cynomolgus monkey plasma at 0.1 mg/kg, iv measured after 5 mins by LC-MS/MS analysis; assay type: ADME, organism-based, Macaca fascicularis
[17] = AUC(0 to 6 hrs) in cynomolgus monkey at 0.1 mg/kg, iv by LC-MS/MS analysis; assay type: ADME, organism-based, Macaca fascicularis; set-up: dose 0.1 mg/kg, route iv; settings: in vivo
[18] = Half life in cynomolgus monkey at 0.1 mg/kg, iv by LC-MS/MS analysis; assay type: ADME, organism-based, Macaca fascicularis; settings: in vivo
[19] = Total clearance in cynomolgus monkey at 0.1 mg/kg, iv by LC-MS/MS analysis; assay type: ADME, organism-based, Macaca fascicularis; settings: in vivo
[20] = Volume of distribution at steady state in cynomolgus monkey at 0.1 mg/kg, iv by LC-MS/MS analysis; assay type: ADME, organism-based, Macaca fascicularis; settings: in vivo, read-out: Vdss
[21] = Unbound drug concentration in Sprague-Dawley rat plasma assessed as free fraction ratio; assay type: ADME, cell-free
[22] = Unbound drug concentration in cynomolgus monkey plasma assessed as free fraction ratio; assay type: ADME, cell-free, Macaca fascicularis
[23] = Unbound drug concentration in Sprague-Dawley rat brain homogenate assessed as free fraction ratio; assay type: ADME, tissue-based
[24] = Lipophilicity, logD of the compound at pH 7.4; assay type: physicochemical; settings: buffer
[25] = Drug metabolism in Sprague-Dawley rat brain assessed as 6-fluoronicotinic acid level in cortex at 10 mg/kg, iv measured after 1 hr by HPLC-UV and LC/MS analysis; assay type: ADME, organism-based; settings: in vivo
[26] = Drug metabolism in Sprague-Dawley rat brain assessed as 6-fluoronicotinic acid formation in cortex at 10 mg/kg, iv measured after 4 hrs by HPLC-UV and LC/MS analysis; assay type: ADME, organism-based; settings: in vivo
[27] = Drug uptake in rhesus monkey cerebellum administered intravenously and measured after 90 to 180 mins by PET/MRI imaging analysis; assay type: ADME, tissue-based, Macaca mulatta; settings: in vivo, iv, time 90-180 min
[28] = Drug uptake in rhesus monkey anterior cingulate cortex administered intravenously and measured after 90 to 180 mins by PET/MRI imaging analysis; assay type: ADME, tissue-based, Macaca mulatta; settings: in vivo, iv, time 90-180 min
[29] = Drug uptake in rhesus monkey frontal lobe administered intravenously and measured after 90 to 180 mins by PET/MRI imaging analysis; assay type: ADME, tissue-based, Macaca mulatta; settings: in vivo, iv, time 90-180 min
[30] = Drug uptake in rhesus monkey caudate nucleus administered intravenously and measured after 90 to 180 mins by PET/MRI imaging analysis; assay type: ADME, tissue-based, Macaca mulatta; settings: in vivo, iv, time 90-180 min
[31] = Drug uptake in rhesus monkey pons administered intravenously and measured after 90 to 180 mins by PET/MRI imaging analysis; assay type: ADME, tissue-based, Macaca mulatta; settings: in vivo, iv, time 90-180 min
[32] = Drug uptake in rhesus monkey cerebellum administered intravenously pretreated with N-(4-[(1S,2R)/(1R,2S)-2-[(Cyclopropylmethyl)amino)cyclopropyl)phenyl)-6-fluoro-4-methylpyridine-3-carboxamide followed by compound addition and measured after 90 to 180 mins by PET/MRI imaging analysis; assay type: ADME, Macaca mulatta; settings: in vivo, iv, time 90-180 min
[33] = Drug uptake in Sprague-Dawley rat brain at 1 mg/kg, iv measured after 4 hrs by LC-MS analysis; assay type: ADME, organism-based; settings: in vivo, BLD = below limit of detection
[34] = Drug metabolism in Sprague-Dawley rat brain assessed as N-(6-fluoropyridin-3-yl)-N-methylacetamide level in cortex at 1 mg/kg, iv measured after 1 hr by HPLC-UV and LC/MS analysis; assay type: ADME, organism-based; settings: in vivo
[35] = Drug metabolism in Sprague-Dawley rat brain assessed as N-(6-fluoropyridin-3-yl)-N-methylacetamide level in cortex at 1 mg/kg, iv measured after 4 hrs by HPLC-UV and LC/MS analysis; assay type: ADME, organism-based; settings: in vivo

P-glycoprotein (ABCB1, MDR1), sequence (P08183 whole entry): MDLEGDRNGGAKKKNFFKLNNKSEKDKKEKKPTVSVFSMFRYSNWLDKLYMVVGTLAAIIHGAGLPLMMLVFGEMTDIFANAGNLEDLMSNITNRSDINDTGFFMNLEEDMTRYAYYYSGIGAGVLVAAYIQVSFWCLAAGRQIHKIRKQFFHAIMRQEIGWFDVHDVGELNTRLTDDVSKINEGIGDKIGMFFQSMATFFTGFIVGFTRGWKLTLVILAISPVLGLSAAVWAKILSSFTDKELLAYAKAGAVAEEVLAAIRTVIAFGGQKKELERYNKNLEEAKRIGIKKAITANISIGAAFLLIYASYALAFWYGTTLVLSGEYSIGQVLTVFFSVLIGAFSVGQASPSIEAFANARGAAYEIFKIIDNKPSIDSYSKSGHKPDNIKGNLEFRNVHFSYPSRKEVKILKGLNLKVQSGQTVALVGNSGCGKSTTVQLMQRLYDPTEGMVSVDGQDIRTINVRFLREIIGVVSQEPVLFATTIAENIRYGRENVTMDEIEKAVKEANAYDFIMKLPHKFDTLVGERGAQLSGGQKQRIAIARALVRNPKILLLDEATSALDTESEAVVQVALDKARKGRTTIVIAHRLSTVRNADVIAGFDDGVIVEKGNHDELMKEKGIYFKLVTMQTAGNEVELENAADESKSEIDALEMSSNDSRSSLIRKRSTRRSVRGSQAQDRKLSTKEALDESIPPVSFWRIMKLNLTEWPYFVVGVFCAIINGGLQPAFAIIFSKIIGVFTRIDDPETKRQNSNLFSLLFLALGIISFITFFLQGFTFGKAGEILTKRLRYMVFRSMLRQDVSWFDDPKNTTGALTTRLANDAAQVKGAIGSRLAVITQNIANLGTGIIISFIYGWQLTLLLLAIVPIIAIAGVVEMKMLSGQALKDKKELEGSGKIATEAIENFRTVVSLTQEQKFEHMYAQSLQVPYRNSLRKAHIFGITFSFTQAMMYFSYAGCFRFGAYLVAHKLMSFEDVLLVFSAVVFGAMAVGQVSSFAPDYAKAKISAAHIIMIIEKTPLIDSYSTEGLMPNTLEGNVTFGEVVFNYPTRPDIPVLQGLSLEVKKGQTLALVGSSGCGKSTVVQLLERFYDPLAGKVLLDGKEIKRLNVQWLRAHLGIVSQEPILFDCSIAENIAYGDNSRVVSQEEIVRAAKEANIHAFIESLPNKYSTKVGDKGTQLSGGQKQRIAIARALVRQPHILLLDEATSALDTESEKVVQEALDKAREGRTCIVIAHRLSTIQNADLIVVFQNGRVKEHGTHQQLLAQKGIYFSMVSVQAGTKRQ

## CC(=O)N(C)c1ccc(F)nc1
[1]
  Drug uptake: Active

## Cc1cc(F)ncc1N(C)C(=O)c1ccc([C@@H]2C[C@H]2NCC2CC2)cc1
LSD1/CoREST complex
  IC50: 3.9 nM
[2]
  efflux ratio at 1 h, 1 µM: 1.4
[3]
  Drug metabolism: 0.1 nmol/g
[4]
  Drug metabolism: 0.24 nmol/g

## Cc1cc(F)ncc1C(=O)Nc1ccc([C@@H]2C[C@H]2NCC2CC2)cc1
LSD1/CoREST complex
  IC50: 7.2 nM
[2]
  efflux ratio at 1 h, 1 µM: 0.91
[5]
  Drug metabolism: 0.21 nmol/g
[6]
  Retention_time: 11.85 min
[7]
  Drug metabolism: Metabolite_Notdetected
[8]
  Drug metabolism: Metabolite_Notdetected
[9]
  Drug metabolism: Metabolite_Notdetected
[10]
  Drug metabolism: Metabolite_Notdetected
[11]
  Drug metabolism: Metabolite_Detected
[12]
  Drug metabolism: Metabolite_Notdetected
[13]
  Activity: Active
[14]
  IC50: > 100000 nM
[15]
  IC50: 33000 nM
[16]
  concentration at 5 min: 31.2 ng/mL
[17]
  AUC(0-t): 51.6 ng·h/mL
[18]
  half-life: 1.75 h
[19]
  clearance: 32.5 mL/min/kg
[20]
  Vd: 3.13 L/kg
[21]
  Ratio: 0.69
[22]
  Ratio: 0.67
[23]
  Ratio: 0.277
[24]
  logD: 1.62

## O=C(Nc1ccc([C@@H]2C[C@H]2NCC2CC2)cc1)c1ccc(F)nc1
LSD1/CoREST complex
  IC50: 10 nM
[2]
  efflux ratio at 1 h, 1 µM: 0.8
[25]
  Drug metabolism: 0.28 nmol/g
[26]
  Drug metabolism: Metabolite_Notdetected

## Cc1cc(F)ncc1C(=O)O
[6]
  Retention_time: 2.19 min

## Cc1cc([18F])ncc1C(=O)Nc1ccc([C@@H]2C[C@H]2NCC2CC2)cc1
[27]
  Drug uptake: Active
[28]
  Drug uptake: Active
[29]
  Drug uptake: Active
[30]
  Drug uptake: Active
[31]
  Drug uptake: Active
[32]
  Drug uptake: Not Active

## CN(C(=O)c1ccc(CCC(=O)O)cc1)c1ccc(F)nc1
[1]
  Drug uptake: Not Active

## Cc1nc(F)ccc1N(C)C(=O)c1ccc([C@@H]2C[C@H]2NCC2CC2)cc1
LSD1/CoREST complex
  IC50: 5.4 nM
[2]
  efflux ratio at 1 h, 1 µM: 1.3

## O=C(c1ccc([C@@H]2C[C@H]2NCC2CC2)cc1)N1CCC(F)CC1
LSD1/CoREST complex
  IC50: 24 nM
[2]
  efflux ratio at 1 h, 1 µM: 0.66

## O=C(c1ccc([C@@H]2C[C@H]2NCC2CC2)cc1)N1CC(F)C1
LSD1/CoREST complex
  IC50: 64 nM
[2]
  efflux ratio at 1 h, 1 µM: 0.64

## CN(C(=O)c1ccc([C@@H]2C[C@H]2NCC2CC2)cc1)c1ccc(F)nc1
[33]
  Drug uptake: Bld
[34]
  Drug metabolism: 0.87 nmol/g
[35]
  Drug metabolism: 1.16 nmol/g

From ChEMBL document CHEMBL5226336, “Design, Synthesis, and Evaluation of [18F]T-914 as a Novel Positron-Emission Tomography Tracer for Lysine-Specific Demethylase 1” (J Med Chem, 2021)
